The text below walks through data of patent US10370354B2, “Metalloenzyme inhibitor compounds” (NQP 1598, LTD., priority 2011, dated 2019).

One experiment deals with C. albicans. In words: Minimum Inhibitory Concentration (MIC), C. albicans, CLSI M27-A2. In kind it is cell-based. The following applies: Candida albicans MIC50; about 50% growth reduction; approximately 48 h at 35±1° C. Here is the method:
Compounds were assessed for their ability to inhibit the growth of common strains of fungus, C. albicans using a standardized procedure (CLSI M27-A2).
Stock solutions of the test compounds and standards were prepared in DMSO at 1600 μg/mL (C. albicans). Eleven, serial, one-half dilutions of compounds were prepared in 96-well plates in RPMI+MOPS. The assay concentration ranges were 1-0.001 μg/mL (C. albicans). Cell suspensions of C. albicans were prepared and added to each well at concentrations of approximately 3.7×10^3 colony-forming-units per milliliter (cfu/mL). All testing was in duplicate. The inoculated plates were incubated for approximately 48 h at 35±1° C. At the completion of incubation the wells of each plate were evaluated visually for the presence of fungal growth.
For voriconazole the M1C was the concentration which reduced C. albicans growth by 50% (per CLST, M27-A2). For QC purposes C. krusei isolate ATCC 6258 (4.0×10^3 cfu/mL) was included in the VOR assay.

Experiment [1] concerns A. fumigatus. In words: A. fumigatus MIC, CLSI M38-A2. The following applies: Aspergillus fumigatus, read-out: Aspergillus MIC.
Description: A. fumigatus MICs were determined at both 50% and 100% growth inhibition following CLSI guidelines at a concentration range of 64-0.062 μg/mL (CLSI M38-A2).
Another experiment deals with Septoria tritici. Kind of experiment: standard Septoria tritici MIC assay (ATCC 26517, CLSI protocol). In kind it is cell-based. The following applies: Zymoseptoria tritici, ATCC26517, range stated for the three compounds together.
For the next experiment, the system named is Septoria. Kind of experiment: protection from fungal growth in planta, Septoria. The experiment is classed as in vivo. The following applies: applied at 50 ppm; Septoria pathogen.
The subject of another experiment is Puccinia. Kind of experiment: protection from fungal growth in planta, Puccinia. In kind it is in vivo. The following applies: applied at 50 ppm; Puccinia pathogen.
The test system of experiment [2] is A. fumigatus. Kind of experiment: standard 4-day mouse model of A. fumigatus, kidney fungal burden. The experiment is classed as in vivo. The following applies: oral administration at 20 mg/kg each of 4 days. On the procedure: For example, oral administration of Compound (−)-9 at 20 mg/kg each of 4 days reduced mouse kidney fungal burden 84% compared to control.

Each structure is given as a SMILES string. ≈ marks a conversion by molar mass, not a printed value. A value given as a limit tells only on which side of the number the result lay.

`C[C@@H](c1ncncc1F)[C@](O)(Cn1cncn1)c1ccc(F)cc1F` [Voriconazole, reference compound]: the MIC (in general, the lowest concentration that inhibits growth of the organism) amounted to 0.016 µg/mL (≈ 0.0458 µM) against C. albicans and 0.25 µg/mL (≈ 0.716 µM) in the experiment with A. fumigatus [1].
For `OC(Cn1cnnn1)(c1ccc(F)cc1F)C(F)(F)c1ccc(C#Cc2ccc(OCc3ccc(OC(F)(F)F)cc3)cc2)cn1` (racemic) [Example 101, 2-(2,4-difluorophenyl)-1,1-difluoro-3-(1H-tetrazol-1-yl)-1-(5-((4-(4-(trifluoromethoxy)benzyloxy)phenyl)ethynyl)pyridin-2-yl)propan-2-ol], the MIC in the experiment on C. albicans is 0.25 µg/mL (≈ 0.388 µM); in the experiment on A. fumigatus [1], 2 µg/mL (≈ 3.11 µM).
Consider `OC(Cn1cnnn1)(c1ccc(F)cc1F)C(F)(F)c1ccc(C#Cc2cccc(Cl)c2)cn1` (racemic) [Example 21, 1-(5-((3-chlorophenyl)ethynyl)pyridin-2-yl)-2-(2,4-difluorophenyl)-1,1-difluoro-3-(1H-tetrazol-1-yl)propan-2-ol], for which, in the experiment with Septoria tritici, the MIC lay in the range of 0.25 to 1 µg/mL (≈ 0.512 to 2.05 µM).
In the case of `OC(Cn1cnnn1)(c1ccc(F)cc1F)C(F)(F)c1ccc(C#Cc2ccc(C(F)(F)F)cc2)cn1` (racemic) [Example 5, 2-(2,4-Difluorophenyl)-1,1-difluoro-3-(1H-tetrazol-1-yl)-1-(5-((4-(trifluoromethyl)phenyl)ethynyl)pyridin-2-yl)propan-2-ol], the results for the MIC in the experiment on C. albicans and in the experiment on A. fumigatus [1] were 0.016 µg/mL (≈ 0.0307 µM) and 8 µg/mL (≈ 15.3 µM), respectively.
On to `OC(Cn1cnnn1)(c1ccc(F)cc1F)C(F)(F)c1ccc(C#Cc2ccc(OCc3ccc(Cl)cc3F)cc2)cn1` (racemic) [Example 108, 1-(5-((4-(4-chloro-2-fluorobenzyloxy)phenyl)ethynyl)pyridin-2-yl)-2-(2,4-difluorophenyl)-1,1-difluoro-3-(1H-tetrazol-1-yl)propan-2-ol], for which the MIC against C. albicans was 0.062 µg/mL (≈ 0.101 µM); with A. fumigatus [1], 4 µg/mL (≈ 6.54 µM).
The molecule `OC(Cn1cnnn1)(c1ccc(F)cc1F)C(F)(F)c1ccc(C#Cc2ccc(F)cc2)cn1` (racemic) [Example 3, 2-(2,4-Difluorophenyl)-1,1-difluoro-1-(5-((4-fluorophenyl)ethynyl)pyridin-2-yl)-3-(1H-tetrazol-1-yl)propan-2-ol] had an MIC against Septoria tritici of 0.25 to 1 µg/mL (≈ 0.53 to 2.12 µM).
`OC(Cn1cnnn1)(c1ccc(F)cc1F)C(F)(F)c1ccc(C#Cc2ccc(Cl)cc2)cn1` (racemic) [Example 2, 1-(5-((4-Chlorophenyl)ethynyl)pyridin-2-yl)-2-(2,4-difluorophenyl)-1,1-difluoro-3-(1H-tetrazol-1-yl)propan-2-ol]: the values for the MIC in the experiment with C. albicans, in the experiment with Septoria tritici and with A. fumigatus [1] were 0.004 µg/mL (≈ 0.0082 µM), 0.25 to 1 µg/mL (≈ 0.512 to 2.05 µM) and 8 µg/mL (≈ 16.4 µM), respectively. For the same molecule, the “protection from fungal growth in planta” value with Septoria and in the experiment with Puccinia was “provide protection from fungal growth” in each case.
Turning to `OC(c1ccc(C#Cc2ccc(C(F)(F)C(O)(Cn3cnnn3)c3ccc(F)cc3F)nc2)cc1)C(F)(F)F` (racemic) [Example 9, 2-(2,4-difluorophenyl)-1,1-difluoro-3-(1H-tetrazol-1-yl)-1-(5-((4-(2,2,2-trifluoro-1-hydroxyethyl)phenyl)ethynyl)pyridin-2-yl)propan-2-ol], the MIC was at most 0.001 µg/mL in the experiment with C. albicans and 0.5 µg/mL (≈ 0.907 µM) in the experiment on A. fumigatus [1].
Consider `OC(c1ccc(C#Cc2ccc(C(F)(F)C(O)(Cn3cnnn3)c3ccc(F)cc3F)nc2)cc1)C(F)(F)F` (stereo not drawn) [Compound (−)-9, 2-(2,4-difluorophenyl)-1,1-difluoro-3-(1H-tetrazol-1-yl)-1-(5-((4-(2,2,2-trifluoro-1-hydroxyethyl)phenyl)ethynyl)pyridin-2-yl)propan-2-ol], for which the “reduced mouse kidney fungal burden compared to control” value in the experiment on A. fumigatus [2] is recorded as 84%.
